Experimental findings from PubChem BioAssay (NCI) are described below.

Each structure is given as a SMILES string.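 Exposure lasted 48 hours, with cells grown in 96-well plates and compounds tested at five concentrations. TGI: total growth inhibition.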 Some results are limits rather than exact numbers.

Among the test systems are 786-0 renal; A549 NSCLC; COLO 205 colon; HCT-116 colon; HOP-62 NSCLC; HS 578T breast; HT29 colon; MALME-3M melanoma; MDA-MB-231 breast; MDA-MB-435; NCI-H460 lung; NCI-H522 lung; NCI/ADR-RES ovarian; RPMI-8226 leukemia; SF-539 CNS; SN12C renal; T-47D breast; OVCAR-3 ovarian; OVCAR-5 ovarian; A498 renal.
Assay in all cases: NCI anticancer screen, dose series, 48 h

Consider `NC(=S)SC1=NNC2(C(=O)N1)c1ccccc1-c1ccccc12`, for which the TGI with 786-0 renal, in the test with A549 NSCLC, with COLO 205 colon, in the test with HCT-116 colon, in the test with HOP-62 NSCLC and in the test with HS 578T breast was above 10 µM throughout. The TGI in the test on HT29 colon, in the test with MALME-3M melanoma, with MDA-MB-231 breast, with MDA-MB-435, with NCI-H460 lung and with NCI-H522 lung was above 10 µM in each case. For the same molecule, the TGI with NCI/ADR-RES ovarian, in the test on RPMI-8226 leukemia, with SF-539 CNS, with SN12C renal and in the test with T-47D breast was above 10 µM in each case.

With `CCN(CC)CCC(=O)c1ccc(Oc2ccc(C)cc2)cc1`, the TGI was 30.1 µM with 786-0 renal; above 100 µM with A549 NSCLC; 45.1 µM with COLO 205 colon; 31.2 µM in the test on HCT-116 colon; 39.3 µM in the test with HOP-62 NSCLC; 44.6 µM in the test on HS 578T breast. The TGI turned out to be 35.6 µM in the test with HT29 colon; 33.7 µM in the test with MALME-3M melanoma; 31 µM in the test with MDA-MB-231 breast; 32 µM in the test on MDA-MB-435; 51.2 µM in the test with NCI/ADR-RES ovarian; 32.4 µM with OVCAR-3 ovarian. The TGI was 41 µM in the test on OVCAR-5 ovarian; 65.9 µM in the test with RPMI-8226 leukemia; 33.1 µM in the test with SF-539 CNS; 30.4 µM in the test on SN12C renal; 40.2 µM in the test on T-47D breast.

Turning to `CN(C)C(=O)c1nnsc1NN=O`, the TGI with 786-0 renal, in the test on A549 NSCLC, with COLO 205 colon, in the test on HCT-116 colon, with HOP-62 NSCLC and in the test on HS 578T breast was above 100 µM throughout. Also, the TGI in the test on HT29 colon, with MALME-3M melanoma, in the test on MDA-MB-231 breast, in the test on MDA-MB-435, with NCI-H460 lung and in the test with NCI-H522 lung was above 100 µM in each case. The TGI with NCI/ADR-RES ovarian, in the test on OVCAR-3 ovarian, in the test with OVCAR-5 ovarian, with RPMI-8226 leukemia, in the test with SN12C renal and with T-47D breast was above 100 µM throughout.

As to `CN(C)S(=O)(=O)n1ccnc1`, the TGI in the test on 786-0 renal, with A498 renal, in the test on A549 NSCLC, in the test with COLO 205 colon, in the test on HCT-116 colon and in the test on HOP-62 NSCLC was above 100 µM in each case. For the same molecule, the TGI in the test on MALME-3M melanoma, with MDA-MB-231 breast, in the test on MDA-MB-435, with NCI-H460 lung, in the test with NCI-H522 lung and in the test on NCI/ADR-RES ovarian was above 100 µM throughout. The TGI in the test on OVCAR-3 ovarian, in the test with OVCAR-5 ovarian, with RPMI-8226 leukemia, in the test on SF-539 CNS, in the test on SN12C renal and in the test with T-47D breast was above 100 µM each time.

As to `C=CC1(c2ccc(Cl)c(Cl)c2)OCCO1`, the TGI is above 100 µM in the test with 786-0 renal; above 100 µM in the test with A549 NSCLC; above 100 µM in the test on COLO 205 colon; above 100 µM in the test on HCT-116 colon; 22.8 µM in the test on HOP-62 NSCLC; above 100 µM in the test with HS 578T breast. Moreover, the TGI in the test on HT29 colon was above 100 µM; in the test with MALME-3M melanoma it was above 100 µM; with MDA-MB-231 breast, 3.48 µM; in the test with MDA-MB-435 it was above 100 µM; in the test with NCI-H460 lung, above 100 µM; with NCI-H522 lung, above 100 µM. Further, the TGI in the test on NCI/ADR-RES ovarian, in the test with OVCAR-3 ovarian, in the test on OVCAR-5 ovarian, in the test with RPMI-8226 leukemia, in the test with SN12C renal and with T-47D breast was above 100 µM each time.

`CC1=NN(c2cccc(Cl)c2)C(=N/c2nc3ccccc3s2)/C1=C\C=C\c1ccccc1`: the TGI was above 100 µM in the test with 786-0 renal; 75.5 µM with A498 renal; above 100 µM in the test with HCT-116 colon; above 100 µM in the test with HOP-62 NSCLC; 87.6 µM with HS 578T breast; above 100 µM with HT29 colon. In addition, the TGI with MDA-MB-435 is above 100 µM; with NCI-H460 lung it was above 100 µM; in the test on NCI-H522 lung, 92.3 µM; with NCI/ADR-RES ovarian, above 100 µM; with OVCAR-3 ovarian, 78.9 µM; in the test on OVCAR-5 ovarian, above 100 µM. The TGI in the test on RPMI-8226 leukemia was 81.2 µM; in the test on SF-539 CNS it was above 100 µM; with T-47D breast, above 100 µM.

Take `CC(=O)O[C@@]12[C@@H]3O[C@@]4(O)C[C@]5(C)[C@H]6C[C@@](C(C)C)(O[C@H]5c5ccoc5)O[C@H]1[C@]6(C4)O[C@]2(O)C(C)=CC3(C)C`: the TGI in the test with 786-0 renal, in the test with A549 NSCLC, with COLO 205 colon, in the test on HCT-116 colon, with HOP-62 NSCLC and in the test with HS 578T breast was above 100 µM throughout. The TGI with HT29 colon, in the test on MALME-3M melanoma, with MDA-MB-231 breast, with MDA-MB-435, in the test with NCI-H522 lung and with NCI/ADR-RES ovarian was above 100 µM throughout. The TGI in the test on OVCAR-3 ovarian, with OVCAR-5 ovarian, in the test on RPMI-8226 leukemia, in the test with SF-539 CNS, in the test with SN12C renal and in the test with T-47D breast was above 100 µM throughout.

Turning to `Nc1ccc(S(=O)(=O)Nc2nc3ccccc3nc2Nc2ccc(S(N)(=O)=O)cc2)cc1`, the TGI in the test with 786-0 renal, in the test with A549 NSCLC, in the test with COLO 205 colon, in the test with HCT-116 colon, with HOP-62 NSCLC and in the test on HS 578T breast was above 100 µM in each case. Moreover, the TGI was above 100 µM in the test with HT29 colon; 97.4 µM in the test on MALME-3M melanoma; above 100 µM in the test on MDA-MB-231 breast; above 100 µM in the test on MDA-MB-435; above 100 µM in the test with NCI-H460 lung; 96.6 µM in the test on NCI-H522 lung. For the same molecule, the TGI in the test with NCI/ADR-RES ovarian, with OVCAR-3 ovarian, in the test on OVCAR-5 ovarian, with RPMI-8226 leukemia, with SF-539 CNS and in the test with SN12C renal was above 100 µM each time. The TGI in the test with T-47D breast was above 100 µM.

Turning to `NC(N)=NS(=O)(=O)c1ccc(Nc2c3ccccc3nc3ccc(C(=O)Nc4ccc(S(N)(=O)=O)cc4)cc23)cc1`, the TGI in the test with 786-0 renal, in the test with A549 NSCLC, in the test on COLO 205 colon, with HCT-116 colon, with HOP-62 NSCLC and with HS 578T breast was above 100 µM each time. Moreover, the TGI in the test on HT29 colon, with MALME-3M melanoma, in the test with MDA-MB-231 breast, in the test with MDA-MB-435, in the test with NCI-H460 lung and in the test on NCI-H522 lung was above 100 µM in each case. The TGI in the test on NCI/ADR-RES ovarian, with OVCAR-3 ovarian, in the test with OVCAR-5 ovarian, in the test with RPMI-8226 leukemia, with SF-539 CNS and with SN12C renal was above 100 µM each time. The TGI with T-47D breast is above 100 µM.

Turning to `CCN(CC)C(=O)C1=C(C)NC(C)=C(C(=O)N(CC)CC)C1`, the TGI in the test on 786-0 renal, with A498 renal, with A549 NSCLC, in the test on COLO 205 colon, with HCT-116 colon and in the test on HOP-62 NSCLC was above 100 µM each time. The TGI in the test with HS 578T breast, in the test on MALME-3M melanoma, in the test on MDA-MB-231 breast, in the test with MDA-MB-435, in the test with NCI-H460 lung and with NCI-H522 lung was above 100 µM in each case. In addition, the TGI in the test on OVCAR-3 ovarian, in the test with OVCAR-5 ovarian, with RPMI-8226 leukemia, with SF-539 CNS, in the test on SN12C renal and with T-47D breast was above 100 µM each time.

In the case of `CCOC(=O)CC/C(C)=N\n1c(Cc2ccc(Cl)cc2)n[nH]c1=O`, the TGI with 786-0 renal, in the test with A549 NSCLC, in the test with HCT-116 colon, with HOP-62 NSCLC, in the test on HS 578T breast and with HT29 colon was above 100 µM in each case. Besides, the TGI with MALME-3M melanoma, in the test on MDA-MB-231 breast, in the test with MDA-MB-435, in the test on NCI-H460 lung, with NCI-H522 lung and in the test on NCI/ADR-RES ovarian was above 100 µM each time. Besides, the TGI is above 100 µM in the test with OVCAR-3 ovarian; 55.5 µM in the test with OVCAR-5 ovarian; above 100 µM in the test with RPMI-8226 leukemia; above 100 µM in the test with SF-539 CNS; above 100 µM in the test on SN12C renal; above 100 µM in the test with T-47D breast.

Consider `CC(=O)OC[C@@]12CC[C@H]3C(C)(C)CCC[C@]3(C)[C@H]1C[C@@H](C1=CC(=O)O[C@H]1O)O2`, for which the TGI was determined as 3.32 µM in the test on 786-0 renal; 20.4 µM in the test on A549 NSCLC; 10.4 µM in the test on COLO 205 colon; 9.07 µM in the test with HCT-116 colon; 23 µM in the test on HOP-62 NSCLC; 17 µM in the test with HS 578T breast. Besides, the TGI in the test on HT29 colon was 7.71 µM; with MDA-MB-435 it was 4.6 µM; with NCI-H460 lung, 29 µM; in the test with NCI-H522 lung it was 8.03 µM; in the test on NCI/ADR-RES ovarian, 16.1 µM; in the test with OVCAR-3 ovarian, 3.99 µM. Also, the TGI in the test on OVCAR-5 ovarian stood at 37.8 µM; in the test on RPMI-8226 leukemia it was 7.27 µM; with SF-539 CNS, 5.28 µM; in the test with SN12C renal, 12.4 µM; in the test with T-47D breast, 8.67 µM.
